Assay results as given in PubChem BioAssay AID651961 (The Scripps Research Institute Molecular Screening Center, 2012).
Activity calls are given as the source filed them. No rule for the calls is given here.

Test system: BLA reporter cell line, FRET fluorescence counterscreen
Test: BLA enzyme inhibitors in reporter cells – cell-based, FRET fluorescence, dose response, counter-screen for NOD2-RIPK2 interaction inhibitor project, late-stage follow-up (AID 651961)

O=[N+]([O-])c1cc(S(=O)(=O)N2CCCCCC2)ccc1F
IC50: > 49.8 µM (inactive)

Cc1ccc(S(=O)(=O)N2CCCCCC2)cc1[N+](=O)[O-]
IC50: > 49.8 µM (inactive)

Cc1ncc([N+](=O)[O-])n1Cc1ccc(Cl)c(Cl)c1
IC50: > 49.8 µM (inactive)

Cc1cc(S(=O)(=O)N2CCCCCC2)ccc1F
IC50: > 49.8 µM (inactive)

Cc1nc([N+](=O)[O-])c(Br)n1Cc1ccc(Cl)c(Cl)c1
IC50: > 49.8 µM (inactive)

O=S(=O)(c1ccccc1)N1CCCCCC1
IC50: > 49.8 µM (inactive)

O=S(=O)(c1ccc(F)cc1)N1CCCCCC1
IC50: > 49.8 µM (inactive)

COc1ccc(C(C[N+](=O)[O-])n2nc(C)cc2C)cc1 (stereo unspecified)
IC50: > 49.8 µM (inactive)

Cc1ccc(C(C[N+](=O)[O-])n2nc(C)cc2C)cc1 (stereo unspecified)
IC50: > 49.8 µM (inactive)

O=[N+]([O-])c1cccc(S(=O)(=O)N2CCCCCC2)c1
IC50: > 49.8 µM (inactive)

Cc1nc([N+](=O)[O-])c(Br)n1Cc1ccccc1
IC50: > 49.8 µM (inactive)
